Reference: the supplement of paper PMC10307832

Tests used:
Assay in all cases: relative viability (nuclei count vs DMSO), 5 days (fraction); higher = more cells survive
Vorinostat + Palbociclib = compound: O=C(CCCCCCC(=O)Nc1ccccc1)NO [Vorinostat] + CC(=O)c1c(C)c2cnc(Nc3ccc(N4CCNCC4)cn3)nc2n(C2CCCC2)c1=O [Palbociclib] (partner 0.5 µM)
Summary of the method: (§1)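 Relative viability was taken as the ratio of nuclei in treated wells to nuclei in vehicle wells. Lung cancer cell lines in 1536-well plates received compounds by pin tool one day after seeding, either one drug alone or a fixed anchor-drug dose plus five library-drug doses (not always all listed) in √10 steps. Nuclei were counted on 4× images after 5 days of treatment, and values are medians of duplicate plates.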

Vorinostat + Bortezomib = compound: O=C(CCCCCCC(=O)Nc1ccccc1)NO [Vorinostat] + CC(C)C[C@H](NC(=O)[C@H](Cc1ccccc1)NC(=O)c1cnccn1)B(O)O [Bortezomib] (partner 0.002 µM)
Summary of the method: as §1

Vorinostat + OSI-027 = compound: O=C(CCCCCCC(=O)Nc1ccccc1)NO [Vorinostat] + COc1cccc2cc(-c3nc([C@H]4CC[C@H](C(=O)O)CC4)n4ncnc(N)c34)[nH]c12 [OSI-027] (partner 0.5 µM)
Summary of the method: as §1

Vorinostat + Alpelisib = compound: O=C(CCCCCCC(=O)Nc1ccccc1)NO [Vorinostat] + Cc1nc(NC(=O)N2CCC[C@H]2C(N)=O)sc1-c1ccnc(C(C)(C)C(F)(F)F)c1 [Alpelisib] (partner 2 µM)
Summary of the method: as §1

Vorinostat + Decitabine = compound: O=C(CCCCCCC(=O)Nc1ccccc1)NO [Vorinostat] + Nc1ncn([C@H]2C[C@H](O)[C@@H](CO)O2)c(=O)n1 [Decitabine] (partner 2 µM)
Summary of the method: as §1

Row | Cell Line | relative viability (Vorinostat + Palbociclib; first compound 0.253 µM) | relative viability (Vorinostat + Palbociclib; first compound 0.8 µM) | relative viability (Vorinostat + Palbociclib; first compound 2.53 µM) | relative viability (Vorinostat + Palbociclib; first compound 8 µM) | relative viability (Vorinostat + Bortezomib; first compound 0.253 µM) | relative viability (Vorinostat + Bortezomib; first compound 0.8 µM) | relative viability (Vorinostat + Bortezomib; first compound 2.53 µM) | relative viability (Vorinostat + Bortezomib; first compound 8 µM) | relative viability (Vorinostat + OSI-027; first compound 0.253 µM) | relative viability (Vorinostat + OSI-027; first compound 0.8 µM) | relative viability (Vorinostat + OSI-027; first compound 2.53 µM) | relative viability (Vorinostat + OSI-027; first compound 8 µM) | relative viability (Vorinostat + Alpelisib; first compound 0.253 µM) | relative viability (Vorinostat + Alpelisib; first compound 0.8 µM) | relative viability (Vorinostat + Alpelisib; first compound 2.53 µM) | relative viability (Vorinostat + Alpelisib; first compound 8 µM) | relative viability (Vorinostat + Decitabine; first compound 0.253 µM) | relative viability (Vorinostat + Decitabine; first compound 0.8 µM) | relative viability (Vorinostat + Decitabine; first compound 2.53 µM) | relative viability (Vorinostat + Decitabine; first compound 8 µM)
1 | NCI-H650 | 0.338 | 0.319 | 0.159 | 0.118 | 0.523 | 0.42 | 0.19 | 0.144 | 0.514 | 0.458 | 0.175 | 0.129 | 1.43 | 0.933 | 0.191 | 0.146 | 0.332 | 0.312 | 0.208 | 0.104
2 | EKVX | 0.401 | 0.398 | 0.199 | 0.125 | 1.14 | 1.11 | 0.561 | 0.175 | 0.623 | 0.659 | 0.39 | 0.132 | 0.992 | 0.951 | 0.4 | 0.14 | 0.31 | 0.324 | 0.194 | 0.133
3 | NCI-H2405 | 0.604 | 0.627 | 0.286 | 0.13 | 1.06 | 1.01 | 0.952 | 0.206 | 0.695 | 0.778 | 0.463 | 0.103 | 1.01 | 0.835 | 0.16 | 0.0486 | 0.794 | 0.741 | 0.478 | 0.121
4 | NCI-H1755 | 0.431 | 0.463 | 0.3 | 0.209 | 0.95 | 0.934 | 0.2 | 0.174 | 0.734 | 0.681 | 0.384 | 0.185 | 1.03 | 0.92 | 0.326 | 0.137 | 0.703 | 0.773 | 0.44 | 0.213
5 | PC-3 [JPC-3] | 0.521 | 0.506 | 0.45 | 0.378 | 0.846 | 0.85 | 0.398 | 0.216 | 0.68 | 0.727 | 0.378 | 0.175 | 1.01 | 0.979 | 0.572 | 0.259 | 0.807 | 0.71 | 0.429 | 0.381
6 | NCI-H647 | 0.453 | 0.158 | 0.0854 | 0.0249 | 1.18 | 0.609 | 0.0719 | 0.0336 | 0.777 | 0.526 | 0.19 | 0.0491 | 1.51 | 0.966 | 0.254 | 0.0332 | 0.356 | 0.286 | 0.137 | 0.0323
7 | NCI-H520 | 0.351 | 0.31 | 0.19 | 0.133 | 0.605 | 0.164 | 0.13 | 0.107 | 0.361 | 0.265 | 0.204 | 0.217 | 1.02 | 0.588 | 0.487 | 0.139 | 0.581 | 0.474 | 0.297 | 0.157
8 | NCI-H322M | 0.487 | 0.445 | 0.418 | 0.356 | 1.4 | 1.25 | 0.715 | 0.392 | 0.584 | 0.502 | 0.32 | 0.235 | 0.93 | 0.852 | 0.576 | 0.296 | 0.679 | 1.1 | 0.622 | 0.373
9 | COR-L 105 | 0.402 | 0.396 | 0.283 | 0.284 | 1.3 | 0.617 | 0.292 | 0.267 | 0.839 | 0.601 | 0.319 | 0.182 | 1.37 | 0.783 | 0.249 | 0.184 | 0.588 | 0.679 | 0.362 | 0.256
10 | NCI-H1355 | 0.411 | 0.356 | 0.214 | 0.138 | 1.3 | 0.978 | 0.863 | 0.131 | 0.442 | 0.309 | 0.228 | 0.164 | 1.1 | 0.691 | 0.321 | 0.145 | 0.393 | 0.354 | 0.253 | 0.143
